Among the data in US7968556B2, “Heteroaryl compounds, compositions thereof, and methods of treatment therewith” (Signal Pharmaceuticals, LLC, priority 2006, dated 2011) are IC50 and melting point values, retold here.

A word on the IC50: it is the concentration that gives 50% inhibition. Read a low IC50 as greater potency. As a reminder, the melting point is the temperature of the solid-liquid transition.

In one data set the target is T1, IKK-2 (Homo sapiens, UniProt O14920, S177E/S181E).
T1 sequence (O14920 1-756 S177E/S181E): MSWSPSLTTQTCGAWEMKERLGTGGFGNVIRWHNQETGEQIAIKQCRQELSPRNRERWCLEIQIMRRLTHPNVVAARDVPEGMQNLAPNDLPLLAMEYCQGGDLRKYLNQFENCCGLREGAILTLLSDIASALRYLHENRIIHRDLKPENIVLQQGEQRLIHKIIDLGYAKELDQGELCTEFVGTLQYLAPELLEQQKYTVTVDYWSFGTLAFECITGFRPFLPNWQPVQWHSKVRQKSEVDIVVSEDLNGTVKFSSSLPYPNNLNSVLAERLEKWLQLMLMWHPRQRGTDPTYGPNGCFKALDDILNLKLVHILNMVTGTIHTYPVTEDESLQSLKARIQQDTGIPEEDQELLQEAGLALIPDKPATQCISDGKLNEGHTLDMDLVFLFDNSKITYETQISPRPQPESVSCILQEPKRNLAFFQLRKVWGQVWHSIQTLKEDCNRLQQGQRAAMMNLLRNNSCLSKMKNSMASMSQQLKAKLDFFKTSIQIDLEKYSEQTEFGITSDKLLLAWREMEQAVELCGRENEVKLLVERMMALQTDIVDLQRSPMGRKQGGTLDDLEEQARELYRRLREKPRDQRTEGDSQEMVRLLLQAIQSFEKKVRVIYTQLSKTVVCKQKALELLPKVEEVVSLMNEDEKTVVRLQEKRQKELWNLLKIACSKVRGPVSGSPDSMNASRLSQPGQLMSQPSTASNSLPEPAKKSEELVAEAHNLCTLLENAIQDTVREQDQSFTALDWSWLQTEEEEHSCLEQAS
Put plainly: IKK-2 screening assay (IKK2EE 33P Assay / IKK2EE NEMO HTRF Assay). In kind it is biochemical. The procedure:
The following is an example of an assay that can be used to determine the IKK2EE inhibitory activity of a test compound.
A reaction buffer (pH 7.8) is prepared containing HEPES (20 mM), MgCl2 (10 mM), EDTA (0.1 mM), DTT (1 mM) and Triton X-100 (0.004%). IKK2EE (0.75 μg/ml is used. GST-IKBα (50 μg/ml) is used as substrate. Adenosine 5′-triphosphate (1.5 μM with ^33P-ATP 5 nCi/μl) is used. Reactions are stopped with trichloroacetic acid (6.25%).
Appropriate amounts of test compounds or controls in 100% DMSO are added to the assay plate. A peptide-substrate solution (PSS) is prepared by adding peptide stock to an appropriate volume of buffer (peptide concentration in the PSS will be about 100 μg/ml). An enzyme-peptide solution (EPS) is prepared by adding enzyme stock to an appropriate volume of PSS (the enzyme concentration in the EPS will be about 1 μg/ml). An ATP solution is prepared by adding ATP stock to an appropriate volume of buffer (the ATP concentration will be 15 μM).
85 μl of EPS is added to the assay wells (or PSS to positive control wells) of 96 well polypropylene plates. The ATP solution is then completed by adding ^33P-ATP (to a final concentration of 50 μCi/ml).
The reaction is initiated by adding 10 μl ATP solution to each well. Plates are shaken from about 12 seconds and allowed to incubate at room temperature for 1 hours. 100 μl of trichloroacetic acid solution (12.5%) is added to stop the reaction and the plates are incubated at room temperature for at least 10 minutes. The assay plates are harvested onto a Millipore Multiscreen harvest Plate FC using an appropriate harvester and the harvest plates are washed with 1×PBS solution for about 10 seconds (continuous flow). Harvest plates are allowed to dry thoroughly and the bottoms of the plates are sealed. 20-50 μl of Microscint20 is added to each well, tops are sealed and plates are read using an appropriate scintillation counter.
A reaction buffer (pH 7.6) is prepared containing HEPES (20 mM), MgCl2 (10 mM), EDTA (0.05 mM), DTT (1 mM) and Triton X-100 (0.004%). IKK2EE-NEMO (0.7 μg/ml is used. GST-IKBα (0.5 μg/ml) is used as substrate. Adenosine 5′-triphosphate (1.5 μM) is used. Detection reagents used are mouse anti-P-IKBα (30 ng/ml), Eu anti-mouse (300 ng/ml) and Cy5 anti-GST (11.5 μg/ml). Reactions are stopped with EDTA (20 mM).
An enzyme solution (ES) is prepared by adding enzyme stock to an appropriate volume of buffer (enzyme concentration in the ES will be about 1.7 ng/ml). A detection mixture (DM) is prepared by adding ATP (final conc. 3.75 μM), mouse anti-P-IKBα (final conc. 75 ng/ml), GST-IKBα (final conc. 1.26 μg/ml), Eu anti-mouse in buffer (final conc. 750 ng/ml).
5 μl of compound (solvated in 10% DMSO) is added to assay wells (or 10% DMSO to control wells) of low binding reaction plates. […] ES is added to assay wells (or buffer to control wells) and the reaction is initiated by adding 10 μl DM to all wells. Plates are incubated at room temperature for 45 minutes. Stop mixture is prepared by adding EDTA (final conc. 70 mM) and Cy5 anti-GST (final conc. 40 μg/ml) to an appropriate volume of buffer. Stop mixture is added and plates are shaken for 20 seconds and incubated at room temperature for at least 3 hours (preferably in the dark). Plates are read on an Analyst HT using Multi-Method HTRF.
On the technique in general: TR-FRET usually uses a lanthanide donor and a delayed reading to cut background.

For the compound `COc1ccccc1-n1c(=O)[nH]c2c(C(N)=O)nc(-c3ccc(O)cc3)nc21` [Compound 8, 2-(4-hydroxyphenyl)-9-(2-methoxyphenyl)-8-oxo-8,9-dihydro-7H-purine-6-carboxamide], the melting point was in the range of 362 to 363 °C. This compound gave an IC50 on IKK-2 above 30 µM.
For `NC(=O)c1nc(-c2cccnc2)nc2c1[nH]c(=O)n2[C@H]1CC[C@H](O)CC1` [Compound 50, 9-(trans-4-Hydroxycyclohexyl)-8-oxo-2-(pyridin-3-yl)-8,9-dihydro-7H-purine-6-carboxamide], in that order: 343 to 345 °C and 0.1 to 5 µM.
As to `COc1ccccc1-n1c(=O)[nH]c2c(C(N)=O)nc(-c3ccnc(O)c3)nc21` [Compound 13, 2-(2-hydroxypyridin-4-yl)-9-(2-methoxyphenyl)-8-oxo-8,9-dihydro-7H-purine-6-carboxamide], the melting point was 360 to 362 °C. Besides, the half-maximal inhibitory concentration (IC50) against IKK-2 was above 30 µM.
